In patent US20170190671A1, “BIS(ARYL)CATECHOL DERIVATIVES AS HERBICIDES” (E I DU PONT DE NEMOURS AND COMPANY, priority 2014, published 2017):

Key:
Assay in all cases: Test C preemergence
Type in all cases: in vivo
[1] = tested on: morningglory (Ipomoea coccinea); details: Ipomoea, pre-emergence, 336 h, preemergence, scale 0 to 100, read-out: Plant response rating, Morningglory
In short: (§1)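 Greenhouse test; preemergence on seeded loam-sand soil or spray on 1- to 4-leaf plants; solvent + surfactant vehicle; 13-15 day hold; visual comparison with controls; 0 (no effect)-100 (complete control).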

corn (Zea mays) = details: Zea mays, pre-emergence, 336 h, preemergence, scale 0 to 100
In short: as §1

[2] = tested on: oilseed rape (Brassica napus); details: Brassica napus, pre-emergence, preemergence, scale 0 to 100, read-out: Plant response rating, Oilseed Rape
In short: as §1

[3] = tested on: giant foxtail (Setaria faberii); details: Setaria faberi, pre-emergence, 336 h, preemergence, scale 0 to 100, read-out: Plant response rating, Foxtail, Giant
In short: as §1

[4] = tested on: lambsquarters (Chenopodium album); details: Chenopodium album, pre-emergence, 336 h, preemergence, scale 0 to 100, read-out: Plant response rating, Lambsquarters
In short: as §1

[5] = tested on: waterhemp (common waterhemp, Amaranthus rudis); details: Amaranthus tuberculatus, pre-emergence, preemergence, scale 0 to 100, read-out: Plant response rating, Waterhemp
In short: as §1

[6] = tested on: Italian ryegrass (Lolium multiflorum); details: Lolium multiflorum, pre-emergence, 336 h, preemergence, scale 0 to 100, read-out: Plant response rating, Ryegrass, Italian
In short: as §1

[7] = tested on: yellow nutsedge (Cyperus esculentus); details: Cyperus, pre-emergence, 336 h, preemergence, scale 0 to 100, read-out: Plant response rating, Nutsedge, Yellow
In short: as §1

[8] = tested on: ragweed (common ragweed, Ambrosia elatior); details: Ambrosia artemisiifolia, pre-emergence, 336 h, preemergence, scale 0 to 100, read-out: Plant response rating, Ragweed
In short: as §1

[9] = tested on: pigweed (Amaranthus retroflexus); details: Amaranthus retroflexus, pre-emergence, 336 h, preemergence, scale 0 to 100, read-out: Plant response rating, Pigweed
In short: as §1

[10] = tested on: large (Lg) crabgrass (Digitaria sanguinalis); details: Digitaria sanguinalis, pre-emergence, 336 h, preemergence, scale 0 to 100, read-out: Plant response rating, Crabgrass, Large
In short: as §1

[11] = tested on: winter wheat (Triticum aestivum); details: Triticum aestivum, pre-emergence, 336 h, preemergence, scale 0 to 100, read-out: Plant response rating, Wheat
In short: as §1

[12] = tested on: velvetleaf (Abutilon theophrasti); details: Abutilon theophrasti, pre-emergence, preemergence, scale 0 to 100, read-out: Plant response rating, Velvetleaf
In short: as §1

[13] = tested on: blackgrass (Alopecurus myosuroides); details: Alopecurus myosuroides, pre-emergence, 336 h, preemergence, scale 0 to 100, read-out: Plant response rating, Blackgrass
In short: as §1

soybean (Glycine max) = details: Glycine max, pre-emergence, preemergence, scale 0 to 100, read-out: Plant response rating, Soybean
In short: as §1

For N#Cc1cccc(Oc2ncc(Cl)cn2)c1Oc1ncc(Cl)cn1 [Compound 3, 2,3-bis[(5-chloro-2-pyrimidinyl)oxy]benzonitrile], the pest or weed control at 31 g/ha ([1]; 31 g ai/ha) was 45%, the pest or weed control at 62 g/ha ([1]; 62 g ai/ha) was 98% and the pest or weed control at 125 g/ha ([1]; 125 g ai/ha) was 100%. For the same compound, the Corn plant response rating (crop injury, 0 = no effect, 100 = complete kill) at 31 g/ha (corn (Zea mays); 31 g ai/ha) was 20%, the Corn plant response rating (crop injury, 0 = no effect, 100 = complete kill) at 62 g/ha (corn (Zea mays); 62 g ai/ha) was 70% and the Corn plant response rating (crop injury, 0 = no effect, 100 = complete kill) at 125 g/ha (corn (Zea mays); 125 g ai/ha) was 85%. For the same compound, the plant injury at 31 g/ha ([2]; 31 g ai/ha) was 90%, the plant injury at 62 g/ha ([2]; 62 g ai/ha) was 95% and the plant injury at 125 g/ha ([2]; 125 g ai/ha) was 95%. It also gave a plant injury at 250 g/ha ([2]; 250 g ai/ha) of 95%, a pest or weed control at 31 g/ha ([3]; 31 g ai/ha) of 100% and a pest or weed control at 62 g/ha ([3]; 62 g ai/ha) of 100%. The pest or weed control at 125 g/ha ([3]; 125 g ai/ha) was 100%, the pest or weed control at 31 g/ha ([4]; 31 g ai/ha) was 100% and the pest or weed control at 62 g/ha ([4]; 62 g ai/ha) was 100%. The pest or weed control at 125 g/ha ([4]; 125 g ai/ha) was 100%, the pest or weed control at 31 g/ha ([5]; 31 g ai/ha) was 100% and the pest or weed control at 62 g/ha ([5]; 62 g ai/ha) was 100%. It also gave a pest or weed control at 125 g/ha ([5]; 125 g ai/ha) of 100%, a pest or weed control at 250 g/ha ([5]; 250 g ai/ha) of 100% and a pest or weed control at 31 g/ha ([6]; 31 g ai/ha) of 5%. It also gave a pest or weed control at 62 g/ha ([6]; 62 g ai/ha) of 35%, a pest or weed control at 125 g/ha ([6]; 125 g ai/ha) of 90% and a pest or weed control at 250 g/ha ([6]; 250 g ai/ha) of 90%. The pest or weed control at 31 g/ha ([7]; 31 g ai/ha) was 5%, the pest or weed control at 62 g/ha ([7]; 62 g ai/ha) was 15% and the pest or weed control at 125 g/ha ([7]; 125 g ai/ha) was 55%. For the same compound, the pest or weed control at 31 g/ha ([8]; 31 g ai/ha) was 90%, the pest or weed control at 125 g/ha ([8]; 125 g ai/ha) was 90% and the pest or weed control at 250 g/ha ([8]; 250 g ai/ha) was 100%. It also gave a pest or weed control at 31 g/ha ([9]; 31 g ai/ha) of 100%, a pest or weed control at 62 g/ha ([9]; 62 g ai/ha) of 100% and a pest or weed control at 125 g/ha ([9]; 125 g ai/ha) of 100%. It also gave a pest or weed control at 31 g/ha ([10]; 31 g ai/ha) of 100%, a pest or weed control at 62 g/ha ([10]; 62 g ai/ha) of 100% and a pest or weed control at 125 g/ha ([10]; 125 g ai/ha) of 100%. The plant injury at 31 g/ha ([11]; 31 g ai/ha) was 5%, the plant injury at 62 g/ha ([11]; 62 g ai/ha) was 45% and the plant injury at 125 g/ha ([11]; 125 g ai/ha) was 90%. The plant injury at 250 g/ha ([11]; 250 g ai/ha) was 90%, the pest or weed control at 31 g/ha ([12]; 31 g ai/ha) was 80% and the pest or weed control at 62 g/ha ([12]; 62 g ai/ha) was 100%. For the same compound, the pest or weed control at 125 g/ha ([12]; 125 g ai/ha) was 100%, the pest or weed control at 250 g/ha ([12]; 250 g ai/ha) was 100% and the pest or weed control at 31 g/ha ([13]; 31 g ai/ha) was 70%. It also gave a pest or weed control at 62 g/ha ([13]; 62 g ai/ha) of 90%, a pest or weed control at 125 g/ha ([13]; 125 g ai/ha) of 90% and a plant injury at 31 g/ha (soybean (Glycine max); 31 g ai/ha) of 40%. It also gave a plant injury at 62 g/ha (soybean (Glycine max); 62 g ai/ha) of 40%, a plant injury at 125 g/ha (soybean (Glycine max); 125 g ai/ha) of 85% and a plant injury at 250 g/ha (soybean (Glycine max); 250 g ai/ha) of 95%.
